Laboratory results reported in paper PMC3880103, “Cathepsin B/X is secreted by Echinometra lucunter sea urchin spines, a structure rich in granular cells and toxins” (The Journal of Venomous Animals and Toxins Including …, 2013).

Test system: T1, cathepsin B/X (cysteine peptidase of the spine aqueous extract)
T1 construct: gene CTSB; anti-cathepsin B bands between 60 and 80 kDa
Assay: fluorogenic substrate hydrolysis (MCA release), non-linear regression
Type: biochemical, Echinometra lucunter
Conditions: crude spine extract; 100 mM ammonium acetate, pH 7.4, 30°C; preincubated with 2 mM DTT
Excerpt: fluorogenic substrate hydrolysis (MCA release), non-linear regression on cathepsin B/X (cysteine peptidase of the spine aqueous extract)

## Cc1cc(=O)oc2cc(NC(=O)[C@H](CCCNC(=N)N)NC(=O)OCc3ccccc3)ccc12 [Z-R-MCA, carbobenzoxy-L-arginine-7-amino-4-methylcoumarin]
  Km: 147 ± 40 µM
